Measurements published in paper PMC9508196 (Scientific Reports, 2022).
≈ marks a conversion by molar mass, not a printed value. No end group written: not given here.

Assays:
[1] = system: A. baumannii A-8.2–1 (XDR); assay: microbe, parasite or virus in culture; assay type: cell-based, Acinetobacter baumannii; details: Acinetobacter baumannii
Description: (§1) Ten strains of both Gram-positive and -negative bacteria, including Staphylococcus aureus ATCC 25,923, S. epidermidis ATCC 12,228, Bacillus cereus ATCC 11,778, Listeria monocytogenes 10403S, Salmonella typhimurium ATCC 13,311, Pseudomonas aeruginosa ATCC 27,853, Shigella sonnei ATCC 11,060, A. baumannii ATCC 19,606, Escherichia coli ATCC 25,922 and E. coli O157:H7, were used in this study. Eight clinical isolates of multidrug-resistant (MDR) and extensively drug-resistant (XDR) A. baumannii, isolated from human (blood, sputum, respiratory sample, sterile site sample and urine), were kindly provided by Asst. Prof. Dr. Sakawrat Kanthawong (Faculty of Medicine, Khon Kaen University, Thailand) (Table S1). All bacterial strains, excluding L. monocytogenes 10403S and E. coli, were cultured in tryptic soy broth (TSB). L. monocytogenes was grown in TSB supplemented with 0.6% yeast extract (TSB-YE), and E. coli was cultured in Luria broth (LB). All of bacteria were cultured at 37 °C with continuous shaking at 220 rpm.
(§2) Minimum inhibitory concentration (MIC) of peptides and antibiotics was assessed by a modified version of the broth microdilution method from the Clinical and Laboratory Standards Institute (CLSI) as previously described. In brief, mid-log phase growths of microbial strains were cultured in Müeller-Hinton broth (MHB) with an initial inoculum of 2–8 × 10^5 CFU/mL. Bacteria suspensions were incubated in sterile 96-well plates with test agents at desired concentrations. […] Minimum bactericidal concentration (MBC) determination was performed using a modified version of the colony count assay. In brief, fifty µl of all non-turbid wells from MIC experiments were spread on agar plates. The MBC value was defined as the lowest concentration of peptides with no colony growth on the plate. All assays were performed in triplicate.

A. baumannii ATCC 19,606 = assay: microbe, parasite or virus in culture; assay type: cell-based, Acinetobacter baumannii
Description: as §1, §2

[2] = system: A. baumannii B-8.1–1 (MDR); assay: microbe, parasite or virus in culture; assay type: cell-based, Acinetobacter baumannii; details: Acinetobacter baumannii
Description: as §1, §2

[3] = system: A. baumannii B-8.1–2 (MDR); assay: microbe, parasite or virus in culture; assay type: cell-based, Acinetobacter baumannii; details: Acinetobacter baumannii
Description: as §1, §2

[4] = system: A. baumannii B-8.2–2 (XDR); assay: microbe, parasite or virus in culture; assay type: cell-based, Acinetobacter baumannii; details: Acinetobacter baumannii
Description: as §1, §2

[5] = system: A. baumannii C-8.1–2 (MDR); assay: microbe, parasite or virus in culture; assay type: cell-based, Acinetobacter baumannii; details: Acinetobacter baumannii
Description: as §1, §2

[6] = system: A. baumannii C-8.2–1 (XDR); assay: microbe, parasite or virus in culture; assay type: cell-based, Acinetobacter baumannii; details: Acinetobacter baumannii
Description: as §1, §2

[7] = system: Bacillus cereus ATCC 11,778; assay type: cell-based; details: B. cereus ATCC 11,778; broth microdilution, MHB, 24 h, 37 °C, triplicate
Description: as §1, §2

[8] = system: Escherichia coli ATCC 25,922; assay type: cell-based; details: E. coli ATCC 25,922; broth microdilution, MHB, 24 h, 37 °C, triplicate
Description: as §1, §2

[9] = system: Escherichia coli O157:H7 MT strain; assay type: cell-based; details: E. coli O157:H7 MT strain; broth microdilution, MHB, 24 h, 37 °C, triplicate
Description: as §1, §2

[10] = system: Listeria monocytogenes 10403S; assay type: cell-based; details: L. monocytogenes 10403S; broth microdilution, MHB, 24 h, 37 °C, triplicate
Description: as §1, §2

[11] = system: Pseudomonas aeruginosa ATCC 27,853; assay type: cell-based; details: P. aeruginosa ATCC 27,853; broth microdilution, MHB, 24 h, 37 °C, triplicate
Description: as §1, §2

[12] = system: Salmonella Typhimurium ATCC 13,311; assay type: cell-based; details: S. Typhimurium ATCC 13,311; broth microdilution, MHB, 24 h, 37 °C, triplicate
Description: as §1, §2

[13] = system: Shigella sonnei ATCC 11,060; assay type: cell-based; details: S. sonnei ATCC 11,060; broth microdilution, MHB, 24 h, 37 °C, triplicate
Description: as §1, §2

[14] = system: Staphylococcus aureus ATCC 25,923; assay type: cell-based; details: S. aureus ATCC 25,923; broth microdilution, MHB, 24 h, 37 °C, triplicate
Description: as §1, §2

[15] = system: Staphylococcus epidermidis ATCC 12,228; assay type: cell-based; details: S. epidermidis ATCC 12,228; broth microdilution, MHB, 24 h, 37 °C, triplicate
Description: as §1, §2

[16] = A. baumannii ATCC 19,606, broth microdilution (modified CLSI), MHB, 2–8 × 10^5 CFU/mL, 24 h, 37 °C, triplicate

| Molecule | MIC (A. baumannii ATCC 19,606; [16]) [µg/mL] | MIC [7] [µg/mL] | MIC [8] [µg/mL] | MIC [9] [µg/mL] | MIC [10] [µg/mL] | MIC [11] [µg/mL] | MIC [12] [µg/mL] | MIC [13] [µg/mL] | MIC [14] [µg/mL] | MIC [15] [µg/mL] | other results |
| --- | --- | --- | --- | --- | --- | --- | --- | --- | --- | --- | --- |
| CN(C)c1ccc(O)c2c1C[C@H]1C[C@H]3[C@H](N(C)C)C(O)=C(C(N)=O)C(=O)[C@@]3(O)C(O)=C1C2=O [Minocycline] |  |  |  |  |  |  |  |  |  |  | MBC [1]: 31.2 µg/mL (≈ 68.3 µM); MIC [1]: 0.98 µg/mL (≈ 2.14 µM); MBC (A. baumannii ATCC 19,606; Acinetobacter baumannii, ATCC19): 1.95 µg/mL (≈ 4.26 µM); MIC (A. baumannii ATCC 19,606; Acinetobacter baumannii, ATCC19, 24 h): ≤ 0.49 µg/mL; MBC [2]: 7.81 µg/mL (≈ 17.1 µM); MIC [2]: ≤ 0.49 µg/mL; MBC [3]: 15.6 µg/mL (≈ 34.2 µM); MIC [3]: 0.98 µg/mL (≈ 2.14 µM); MBC [4]: 31.2 µg/mL (≈ 68.3 µM); MIC [4]: 3.91 µg/mL (≈ 8.55 µM); MBC [5]: 31.2 µg/mL (≈ 68.3 µM); MIC [5]: 3.91 µg/mL (≈ 8.55 µM); MBC [6]: 31.2 µg/mL (≈ 68.3 µM); MIC [6]: 1.95 µg/mL (≈ 4.26 µM) |
| RLFRRVKKVAGK-NH2 [AP12] | > 250 | > 250 | 125 | 250 | 125 | > 250 | 125 | 250 | > 250 | 250 |  |
| RLFRRVKKVAGKI-NH2 [AP13] | > 250 | > 250 | 125 | 250 | 62.5 | > 250 | 62.5 | 125 | > 250 | 62.5 |  |
| RLFRRVKKVAGKIA-NH2 [AP14] | > 250 | > 250 | 125 | 250 | 62.5 | 250 | 62.5 | 125 | > 250 | 31.25 |  |
| RLFRRVKKVAGKIAK-NH2 [AP15] | 62.5 | > 250 | 31.25 | 62.5 | 31.25 | 125 | 31.25 | 62.5 | 250 | 15.63 |  |
| RLFRRVKKVAGKIAKR-NH2 [AP16] | 62.5 | 250 | 31.25 | 125 | 15.63 | 62.5 | 15.63 | 15.63 | 125 | 7.81 |  |
| RLFRRVKKVAGKIAKRI-NH2 [AP17] | 31.25 | 62.5 | 15.63 | 125 | 7.81 | 15.63 | 7.81 | 7.81 | 62.5 | 7.81 |  |
| RLFRRVKKVAGKIAKRIW-NH2 [AP18] | 7.81 | 7.81 | 7.81 | 15.63 | 3.91 | 3.91 | 3.91 | 3.91 | 7.81 | 3.91 |  |
